Values quoted from earlier work in patent US12507891B2 (priority 2020, dated 2025).

Conditions: incrementally increased propofol hypnosis

## CC(C)c1cccc(C(C)C)c1O [propofol]
  PUAL under propofol hypnosis: PUAL values remain within normal ranges until a subject becomes completely unresponsive
